Test results reported in article PMC4818757, “Small molecule inhibitors of the Dishevelled‐CXXC5 interaction are new drug candidates for bone anabolic osteoporosis therapy” (EMBO Molecular Medicine, 2016).

Columns and labels:
[1] = system: TA-98; conditions: TA-98, Without S-9 mix
Excerpt: (§1) Appendix Table S3. Bacterial reverse mutation assay with KY-02327
(§2) a Number of revertant colonies of treated plate/Number of revertant colonies of
(§3) vehicle control plate (Maron & Ames, 1983).
(§4) b Negative control. Vehicle: DMSO

[2] = system: ovariectomized (OVX) mice; test: OVX-induced osteoporosis mouse model; type: in vivo; conditions: KY‐02327 20 mpk oral, PTH 0.06 mpk subcutaneous
Description: Figure 6 Effects of KY‐02327 on OVX‐induced osteoporosis model mice • A–H Vehicle or 20 mg of KY‐02327 per kg of animal body weight (mpk) was orally administered or 0.06 mpk of the N‐terminal fragment of PTH (amino acids 1‐34) was subcutaneously injected into the Sham‐operated (Sham) or ovariectomized (OVX) mice on 5 sequential days per week for 4 weeks (n = 4). After calcein injection, the prepared femoral sections of the OVX mice were examined under fluorescence microscope to visualize integrated calcein (A, green, arrows). Nuclei were counterstained with DAPI (A, blue). Scale bars, 100 μm. Osteoblast numbers (B) and calcein double‐labeled surfaces (C) were measured in the femoral sections. The mouse femurs were analyzed using micro‐CT, and BMD (D) and BV/TV (E) were calculated from the micro‐CT data. The three‐dimensional images of femoral trabecular bone were reconstructed (F), and trabecular number (G) and trabecular separation (H) were calculated. Data Information: The data are the mean ± s.d. (error bars). Significance was assessed using Kruskal–Wallis test.
This animal study was approved by the Institutional Review Board of Severance Hospital, Yonsei University College of Medicine. The mice were housed in filter‐topped shoebox cages with a computerized environmental control system (MJ LTD, Seoul, Korea). The care and treatment of experimental animals were performed in accordance with institutional guidelines. The room temperature was maintained at 26.5°C with a relative humidity of approximately 40–70%. The mice were given a standard maintenance diet from Dae Han Bio Link (Daejeon, Korea). For OVX mouse experiments, the surgeries were performed with 8‐week‐old female BL6 mice under anesthesia with avertin (2,2,2‐tribromoethanol; Worthington Biochemical, Freehold, NJ) as described previously (Zahoor et al, 2014). After removing the hair, dorsal incisions were made into the dermal layers above both sides of the ovaries using dissection scissors. The connection between the fallopian tube and the uterine horn was cut, and the ovary was removed. The incision was then sutured with 3 single catgut stitches. Sham mice were used as controls. After 4 weeks, the OVX group was divided into three groups for oral administration of vehicle (saline containing 10% Tween‐60) or 20 mg of KY‐02327 per kg of animal body weight (mpk) of KY‐02327, or for subcutaneous injection of 0.06 mpk of N‐terminal fragment of PTH (amino acids 1–34), which were administered for 5 sequential days per week for 4 weeks. The animals were sacrificed, and the organs were harvested for analysis. For the calcein double‐labeling experiment (Pall et al, 1987), calcein (10 mpk in 2% sodium hydrocarbonate, pH 7.4) was injected twice, on the last day of the 2nd and 3rd week. All the mice were randomly assigned to each groups, and the investigators were blinded to the group allocation during the treatments and experiments.
The mouse femurs were scanned using a micro‐CT system (Skyscan 1072; Skyscan, Aartselaar, Belgium). The scanned image data were reconstructed to create 3D images and analyzed using the CT‐Analyzing Program (Skyscan). For femoral trabecular bone analysis, the femurs were scanned with a voxel size of 10 μm, beginning at the end of the growth plate and extending proximally along the diaphysis, and 80 continuous slices (beginning at 0.1 mm from the most proximal aspect of the growth plate in which both condyles were no longer visible) were selected for analysis.
The femurs of OVX mice and the calvariae of 4‐day‐old mice were fixed in 4% paraformaldehyde in PBS. The bones were then decalcified in 10 mM EDTA and embedded in paraffin. Five‐micrometer tissue sections were deparaffinized in 100% xylene followed by re‐hydration with sequential 100% to 50% ethanol washes. The sections were stained with hematoxylin and eosin (H&E), and light micrographs were captured using a SMZ645 Nikon microscope (Nikon, Tokyo, Japan). […]

[3] = target: CYP C29 (so in the source); probably CYP2C9) (Homo sapiens, UniProt P11712); test: Cytochrome P450 inhibition assay, C29
CYP C29 (so in the source); probably CYP2C9), sequence (P11712 whole entry): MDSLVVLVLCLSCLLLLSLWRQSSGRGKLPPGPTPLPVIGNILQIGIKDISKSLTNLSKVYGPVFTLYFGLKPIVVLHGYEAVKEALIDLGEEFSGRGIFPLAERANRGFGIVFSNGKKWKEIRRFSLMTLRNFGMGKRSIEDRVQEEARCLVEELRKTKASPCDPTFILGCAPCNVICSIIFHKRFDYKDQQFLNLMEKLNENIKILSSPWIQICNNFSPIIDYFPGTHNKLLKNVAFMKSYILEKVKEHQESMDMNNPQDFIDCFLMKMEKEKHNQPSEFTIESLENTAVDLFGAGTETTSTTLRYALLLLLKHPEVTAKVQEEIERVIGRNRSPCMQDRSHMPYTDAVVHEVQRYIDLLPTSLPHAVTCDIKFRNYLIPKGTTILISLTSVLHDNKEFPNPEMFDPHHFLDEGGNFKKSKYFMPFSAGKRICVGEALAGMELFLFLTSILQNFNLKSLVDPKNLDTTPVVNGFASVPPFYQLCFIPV
Excerpt: Appendix Table S4. Cytochrome P450 (CYP) inhibition assay with 10 µ M KY-

[4] = system: TA-100; conditions: TA-100, Without S-9 mix
Excerpt: as §1, §2, §3, §4

Compound: O=[N+]([O-])c1ccc2c(c1)Cc1ccccc1-2 [2-NF, 2-nitrofluorene, reference compound]
- Factor (revertant colonies treated plate / vehicle control plate) [1]: 9.4
- Revertant colonies/plate (Mean) ([1]; dose (g/plate): KY-02327 1000, 2-NF 1): 178 ± 16 colonies/plate

Compound: PTH: N‐terminal fragment of PTH (amino acids 1‐34) [reference compound]
- destroyed trabecular bones (3D micro-CT images) ([2]; 4 weeks): rescued
- mineral contents of the bone (BMD), femur, micro‐CT ([2]; 4 weeks): significantly increased
- trabecular bone number ([2]; 4 weeks): increase
- trabecular separation ([2]; 4 weeks): decrease
- volume of bone (BV/TV) ([2]; 4 weeks, vs vehicle): increased
- calcein double‐labeled surface ([2]; 5 days per week for 4 weeks): increased
- new bone formation (calcein-labeled) in femur ([2]; 5 days per week for 4 weeks): recovered
- number of osteoblasts ([2]; 5 days per week for 4 weeks): increased

Compound: Nc1ccc(S(=O)(=O)Nc2ccnn2-c2ccccc2)cc1 [Sulfaphenazole, reference compound]
- inhibition at 10 µM [3]: 80.5%

Compound: [N-]=[N+]=[N-].[Na+] [S.A, Sodium azide, reference compound]
- Factor (revertant colonies treated plate / vehicle control plate) [4]: 5.6
- Revertant colonies/plate (Mean) ([4]; dose (g/plate): KY-02327 1000, S.A 1): 689 ± 20 colonies/plate
